According to the NIST ThermoML archive (doi:10.1021/je060271a):
Numbers after ± are expanded uncertainties.

Conditions: 303.15 K, Liquid, Vibrating tube method

CCCCCCC(=O)OCC(COC(=O)CCCCCC)(COC(=O)CCCCCC)COC(=O)CCCCCC [pentaerythritol tetraheptanoate]
Conditions | mass density [kg/m3]
14618 kPa | 979.8 ± 1.2
14643 kPa | 979.6 ± 1.2
14669 kPa | 979.7 ± 1.2
14835 kPa | 979.7 ± 1.2
14866 kPa | 979.8 ± 1.2
14893 kPa | 979.8 ± 1.2
14920 kPa | 979.9 ± 1.2
14947 kPa | 979.9 ± 1.2
14979 kPa | 979.9 ± 1.2
15006 kPa | 979.9 ± 1.2
15179 kPa | 980 ± 1.2
15268 kPa | 980.1 ± 1.2
15330 kPa | 980.1 ± 1.2
15358 kPa | 980.1 ± 1.2
15511 kPa | 980.2 ± 1.2
15757 kPa | 980.3 ± 1.2
15823 kPa | 980.4 ± 1.2
15852 kPa | 980.4 ± 1.2
15911 kPa | 980.5 ± 1.2
15969 kPa | 980.5 ± 1.2
15996 kPa | 980.5 ± 1.2
16084 kPa | 980.4 ± 1.2
16171 kPa | 980.5 ± 1.2
16226 kPa | 980.7 ± 1.2
16314 kPa | 980.7 ± 1.2
16348 kPa | 980.7 ± 1.2
16441 kPa | 980.7 ± 1.2
16499 kPa | 980.7 ± 1.2
16527 kPa | 980.8 ± 1.2
16556 kPa | 980.8 ± 1.2
16591 kPa | 980.8 ± 1.2
16620 kPa | 980.9 ± 1.2
16684 kPa | 980.8 ± 1.2
16714 kPa | 981 ± 1.2
16809 kPa | 980.9 ± 1.2
16906 kPa | 981 ± 1.2
16937 kPa | 981.1 ± 1.2
16967 kPa | 981.1 ± 1.2
17004 kPa | 981 ± 1.2
17035 kPa | 981 ± 1.2
17066 kPa | 981.1 ± 1.2
17103 kPa | 981.1 ± 1.2
17134 kPa | 981.1 ± 1.2
17305 kPa | 981.2 ± 1.2
17337 kPa | 981.2 ± 1.2
17369 kPa | 981.4 ± 1.2
17407 kPa | 981.3 ± 1.2
17756 kPa | 981.5 ± 1.2
17796 kPa | 981.5 ± 1.2
17831 kPa | 981.5 ± 1.2
17865 kPa | 981.5 ± 1.2
17899 kPa | 981.6 ± 1.2
17940 kPa | 981.7 ± 1.2
17975 kPa | 981.7 ± 1.2
18052 kPa | 981.6 ± 1.2
18128 kPa | 981.7 ± 1.2
18164 kPa | 981.8 ± 1.2
18201 kPa | 981.7 ± 1.2
18237 kPa | 981.8 ± 1.2
18282 kPa | 981.7 ± 1.2
18319 kPa | 981.9 ± 1.2
18356 kPa | 981.8 ± 1.2
18394 kPa | 981.8 ± 1.2
18458 kPa | 981.9 ± 1.2
18488 kPa | 981.8 ± 1.2
18517 kPa | 981.8 ± 1.2
18612 kPa | 982 ± 1.2
18935 kPa | 982.2 ± 1.2
18973 kPa | 982.2 ± 1.2
19005 kPa | 982.2 ± 1.2
19038 kPa | 982.3 ± 1.2
19070 kPa | 982.2 ± 1.2
19102 kPa | 982.2 ± 1.2
19342 kPa | 982.4 ± 1.2
19381 kPa | 982.5 ± 1.2
19414 kPa | 982.5 ± 1.2
19448 kPa | 982.5 ± 1.2
19484 kPa | 982.6 ± 1.2
19774 kPa | 982.5 ± 1.2
19918 kPa | 982.7 ± 1.2
19954 kPa | 982.7 ± 1.2
19989 kPa | 982.8 ± 1.2
20030 kPa | 982.7 ± 1.2
20066 kPa | 982.9 ± 1.2
20143 kPa | 982.9 ± 1.2
20336 kPa | 982.9 ± 1.2
20372 kPa | 982.9 ± 1.2
20409 kPa | 983 ± 1.2
20454 kPa | 983 ± 1.2
20490 kPa | 983.1 ± 1.2
20527 kPa | 983.1 ± 1.2
20572 kPa | 983.1 ± 1.2
20609 kPa | 983.2 ± 1.2
20647 kPa | 983.1 ± 1.2
20691 kPa | 983.2 ± 1.2
20729 kPa | 983.3 ± 1.2
20767 kPa | 983.1 ± 1.2
20812 kPa | 983.2 ± 1.2
20936 kPa | 983.2 ± 1.2
20976 kPa | 983.4 ± 1.2
21014 kPa | 983.4 ± 1.2
21054 kPa | 983.3 ± 1.2
21101 kPa | 983.4 ± 1.2
21140 kPa | 983.4 ± 1.2
21179 kPa | 983.5 ± 1.2
21227 kPa | 983.4 ± 1.2
21267 kPa | 983.4 ± 1.2
21314 kPa | 983.5 ± 1.2
21354 kPa | 983.4 ± 1.2
21444 kPa | 983.6 ± 1.2
21526 kPa | 983.6 ± 1.2
21576 kPa | 983.5 ± 1.2
